Test results: patent publication US5770563A, “Heparin- and sulfatide binding peptides from the type I repeats of human thrombospondin and conjugates thereof” (The United States of America as represented by the …, priority 1995, dated 1998)
Where two headings read alike, the source gives them in different places. Square brackets hold non-standard residues; d marks the D form. Peptide text beside a SMILES is read from it. Ava = NCCCCC(=O)O; Mpa = O=C(O)CCS

What was measured:
[1] = molecular target: thrombospondin binding to heparin; assay: Inhibition of 125I-thrombospondin binding to immobilized heparin-BSA; set-up: species or system human; conditions: for inhibition of thrombospondin binding to heparin, in words: free peptide
Experimental: (§1) The peptides were tested as inhibitors of laminin, thrombospondin or apolipoprotein E binding to a heparin-bovine serum albumen conjugate or to a sulfatide in a solid phase assay essentially following the procedure described in Zabrenetzky et al., Cancer Res., Vol. 50, pages 5937-5942 (1990). Sulfatide (0.2 μg/well for thrombospondin binding, 0.6 μg/well for laminin binding) was immobilized in a mixture of 50 ng of phosphatidyl choline, and 30 ng of cholesterol on polyvinyl chloride microtiter plates. Heparin-BSA (0.2 μg/well) was absorbed onto polyvinyl chloride microtiter plate wells by incubation of 50 μl of Dulbecco's PBS for 2 h at 37°. The wells were emptied and filled with 50 mM tris, pH 7.8 containing 150 mM NaCl, 1 mM CaCl2, 0.025% NaN3, and 1% BSA. After 30 minutes, the wells were emptied and 30 μl of various concentrations of potential inhibitory peptides diluted in the same buffer or buffer alone and 30 μl of ^125 I-labeled laminin, thrombospondin or apolipoprotein E (0.2 μg/ml) were added to each well. After 3 hours at 4°, the wells were washed 6 times with 0.15M NaCl, cut from the plate and the bound radioactivity counted. FIGS. 1A-B and 2A-B show the level of thrombospondin binding to sulfatide and heparin-BSA, respectively, in the presence of increasing concetrations of the peptides listed. FIGS. 3 and 4A-B show the level of laminin binding to sulfatide and heparin-BSA, respectively, in the presence of increasing concentrations of the listed peptides.
Microtiter plate wells were coated with heparin-BSA. Heparin-BSA (0.2 μg/well) was adsorbed by incubation in 50 μl of Dulbecco's PBS for 2 h at 370. The wells were emptied, filled with tris-BSA, and incubated for 30 to 60 minutes. The buffer was removed, and labelled thrombospondin was added and incubated in the wells for 3 h at 40. The wells were emptied and washed 4 times with saline. The bottoms of the wells were cut from the plate and counted to quantify thrombospondin binding. Inhibition of thrombospondin binding was determined using peptides diluted in 30 μl of 50 mM tris buffer, pH 7.8, containing 110 mM NaCl, 1 mM CaCl2, 0.025% NaN3, and 1% BSA or buffer alone and 30 μl of ^125 I-labeled TSP (0.2 μg/ml).

[2] = molecular target: thrombospondin binding to sulfatide; assay: Inhibition of 125I-thrombospondin binding to sulfatide; set-up: species or system human; conditions: for IC50: Table 1, free peptide
Experimental: as §1

[3] = molecular target: laminin binding to heparin; assay: Inhibition of 125I-laminin binding to heparin-BSA; set-up: species or system mouse; conditions: Table 2, free peptide
Experimental: as §1

[4] = molecular target: laminin binding to sulfatide; assay: Inhibition of 125I-laminin binding to sulfatide; set-up: species or system mouse; conditions: Table 2, free peptide
Experimental: as §1

[5] = molecular target: basic fibroblast growth factor (FGF-2) binding to heparin; assay: Inhibition of 125I-bFGF binding to heparin-BSA conjugate; conditions: retro-inverso peptides; read-out: IC50 for Inhibition of Binding
Experimental: Binding of ^125 I-bFGF to heparin was determined using an immobilized heparin-BSA conjugate as previously described (Guo, et al. (1992) Proc. Nat'l Acad. Sci. 89:3040-3044). ^125 I-bFGF, prepared as described by Neufeld, et al, (1985), J. Biol. Chem. 260:13860-13868, was added described above, and incubated for 2 hours at 25° C. Bound radioactivity was determined after washing and cutting the wells from the plate. FIGS. 40A, B and C show the inhibition of ^125 I-bFGF binding to heparin by a number of TSP peptide analogs.

[6] = Table 1, free peptide, read-out: IC50 Heparin Binding, inhibition of 125I-thrombospondin binding
[7] = retro-inverso peptides, free, read-out: IC50 Inhibitory Activity, Free Peptide

Row | IC50 [1, 6] | inhibition of thrombospondin binding to heparin, in words [1] | IC50 [2] | IC50 [3] | IC50 [4] | IC50 [5] | IC50 [1, 7] | fold less active than CSVTCG ([2]; thrombospondin binding to sulfatide) | Compound
1 | > 200 µM | inactive | > 200 µM | > 200 µM | > 200 µM | – | – | – | CC(C)[C@H](N)C(=O)N[C@H](C(=O)N[C@@H](CS)C(=O)NCC(=O)O)[C@@H](C)O [Peptide 203, VTCG] (H-VTCG-OH)
2 | – | – | – | – | – | 0.65 µM | – | – | CC(=O)N[C@H](C)C(=O)N[C@H](C)C(=O)N[C@H](Cc1c[nH]c2ccccc12)C(=O)N[C@H](Cc1c[nH]cn1)C(=O)N[C@H](CO)C(=O)N[C@H](Cc1c[nH]c2ccccc12)C(=O)NCC(=O)N[C@H](C)C(=O)N[C@H](CCC(N)=O)C(=O)N[C@H](CCCCN)C(=O)N[C@H](Cc1ccccc1)C(=O)N[C@H](CCCNC(=N)N)C(=O)N[C@H](CCCCN)C(N)=O [Peptide 530, ri-amKRFKQAGWSHWAAac] (Ac-[dA][dA][dW][dH][dS][dW]G[dA][dQ][dK][dF][dR][dK]-NH2)
3 | – | – | – | – | – | 0.1 µM | – | – | CC(=O)N[C@H](C)C(=O)N[C@H](C)C(=O)N[C@H](Cc1c[nH]c2ccccc12)C(=O)N[C@H](Cc1c[nH]cn1)C(=O)N[C@H](CO)C(=O)N[C@H](Cc1c[nH]c2ccccc12)C(=O)NCC(=O)N[C@H](C)C(=O)N[C@H](CCC(N)=O)C(=O)N[C@H](CCCCN)C(=O)N[C@H](C)C(=O)N[C@H](CCCCN)C(=O)N[C@H](CCCCN)C(N)=O [Peptide 537, ri-amKKAKQAGWSHWAAac] (Ac-[dA][dA][dW][dH][dS][dW]G[dA][dQ][dK][dA][dK][dK]-NH2)
4 | – | – | – | – | – | 0.95 µM | 0.1 µM | – | CC(=O)N[C@H](CS)C(=O)N[C@H](CO)C(=O)N[C@H](CO)C(=O)N[C@H](Cc1c[nH]c2ccccc12)C(=O)N1CCC[C@@H]1C(=O)N[C@H](CO)C(=O)N[C@H](Cc1c[nH]c2ccccc12)C(=O)N[C@H](Cc1c[nH]cn1)C(=O)N[C@H](CO)C(=O)N[C@H](Cc1c[nH]c2ccccc12)C(=O)NCC(=O)NCC(=O)N[C@H](CC(=O)O)C(=O)N[C@H](CCC(N)=O)C(=O)N[C@H](CCCCN)C(=O)N[C@H](C)C(=O)N[C@H](CCCNC(=N)N)C(=O)N[C@H](CCCCN)C(N)=O [Peptide 474, ri-amKRAKQDGGWSHWSPWSSCac] (Ac-[dC][dS][dS][dW][dP][dS][dW][dH][dS][dW]GG[dD][dQ][dK][dA][dR][dK]-NH2)
5 | > 200 µM | – | > 200 µM | > 200 µM | > 200 µM | – | – | – | CC(C)[C@H](N)C(=O)N[C@H](C(=O)N[C@@H](CS)C(=O)NCC(=O)NCC(=O)NCC(=O)N[C@H](C(=O)N[C@@H](CCC(N)=O)C(=O)N[C@@H](CCCCN)C(=O)N[C@@H](CCCNC(=N)N)C(=O)O)C(C)C)[C@@H](C)O [Peptide 204, VTCGGGVQKR] (H-VTCGGGVQKR-OH)
6 | > 200 µM | inactive | > 200 µM | ~200 µM | > 200 µM | – | – | – | CC(C)C[C@H](NC(=O)[C@H](CCCNC(=N)N)NC(=O)[C@H](CO)NC(=O)[C@H](CCCNC(=N)N)NC(=O)[C@H](CCCCN)NC(=O)[C@H](CCC(N)=O)NC(=O)[C@@H](NC(=O)CNC(=O)CNC(=O)CNC(=O)[C@H](CS)NC(=O)[C@@H](NC(=O)[C@@H](N)C(C)C)[C@@H](C)O)C(C)C)C(=O)O [Peptide 245, VTCGGGVQKRSRL] (H-VTCGGGVQKRSRL-OH)
7 | 58 µM | very weak inhibitor | 30 µM | 100 µM | 85 µM | – | – | 2 fold | CC(C)[C@H](NC(=O)[C@H](CO)NC(=O)[C@@H](N)CO)C(=O)N[C@H](C(=O)N[C@@H](CS)C(=O)NCC(=O)O)[C@@H](C)O [Peptide 237, SSVTCG] (H-SSVTCG-OH)
8 | – | – | – | – | – | 0.95 µM | – | – | CC(=O)N[C@H](C)C(=O)N[C@H](C)C(=O)N[C@H](Cc1c[nH]c2ccccc12)C(=O)N[C@H](Cc1c[nH]cn1)C(=O)N[C@H](CO)C(=O)N[C@H](Cc1c[nH]c2ccccc12)C(=O)NCC(=O)N[C@H](C)C(=O)N[C@H](CCC(N)=O)C(=O)N[C@H](CCCNC(=N)N)C(=O)N[C@H](C)C(=O)N[C@H](CCCNC(=N)N)C(=O)N[C@H](CCCCN)C(N)=O [Peptide 536, ri-amKRARQAGWSHWAAac] (Ac-[dA][dA][dW][dH][dS][dW]G[dA][dQ][dR][dA][dR][dK]-NH2)
9 | > 200 µM | inactive | > 200 µM | > 200 µM | > 200 µM | – | – | – | CC(C)[C@H](NC(=O)[C@H](CO)NC(=O)[C@@H](N)CS)C(=O)N[C@H](C(=O)O)[C@@H](C)O [Peptide 234, CSVT] (H-CSVT-OH)
10 | – | – | – | – | – | 0.37 µM | – | – | CC(=O)N[C@H](C)C(=O)N[C@H](C)C(=O)N[C@H](Cc1c[nH]c2ccccc12)C(=O)N[C@H](Cc1c[nH]cn1)C(=O)N[C@H](CO)C(=O)N[C@H](Cc1c[nH]c2ccccc12)C(=O)NCC(=O)N[C@H](C)C(=O)N[C@H](CCC(N)=O)C(=O)N[C@H](CCCCN)C(=O)N[C@H](C)C(=O)N[C@H](CCCNC(=N)N)C(=O)N[C@H](CCCCN)C(N)=O [Peptide 529, ri-amKRAKQAGWSHWAAac] (Ac-[dA][dA][dW][dH][dS][dW]G[dA][dQ][dK][dA][dR][dK]-NH2)
11 | – | – | – | – | – | – | 0.046 µM | – | C[C@@H](NC(=O)CCS)C(=O)N[C@H](C)C(=O)N[C@H](Cc1c[nH]c2ccccc12)C(=O)N[C@H](Cc1c[nH]cn1)C(=O)N[C@H](CO)C(=O)N[C@H](Cc1c[nH]c2ccccc12)C(=O)NCCCCC(=O)N[C@H](C)C(=O)N[C@H](CCC(N)=O)C(=O)N[C@H](CCCCN)C(=O)N[C@H](C)C(=O)N[C@H](CCCNC(=N)N)C(=O)N[C@H](CCCCN)C(N)=O [ri-amKRAKQUWSHWAAtp] ([Mpa][dA][dA][dW][dH][dS][dW][Ava][dA][dQ][dK][dA][dR][dK]-NH2)
12 | > 200 µM | – | > 200 µM | > 200 µM | > 200 µM | – | – | – | CC[C@H](C)[C@H](NC(=O)CNC(=O)[C@H](CC(N)=O)NC(=O)CNC(=O)[C@H](CS)NC(=O)[C@H](CO)NC(=O)[C@@H](N)[C@@H](C)O)C(=O)N[C@@H](CCC(N)=O)C(=O)N[C@@H](CCC(N)=O)C(=O)N[C@@H](CCCNC(=N)N)C(=O)O [Peptide 206, TSCGNGIQQR] (H-TSCGNGIQQR-OH)
13 | > 200 µM | – | > 200 µM | > 200 µM | > 200 µM | – | – | – | CC(C)[C@H](NC(=O)[C@H](CO)NC(=O)[C@@H](N)CO)C(=O)N[C@H](C(=O)O)[C@@H](C)O [Peptide 235, SSVT] (H-SSVT-OH)
14 | > 200 µM | – | > 200 µM | > 200 µM | > 200 µM | – | – | – | CC(C)[C@H](NC(=O)[C@H](CO)NC(=O)[C@H](C)N)C(=O)N[C@H](C(=O)O)[C@@H](C)O [Peptide 236, ASVT] (H-ASVT-OH)
15 | > 200 µM | – | > 200 µM | > 200 µM | > 200 µM | – | – | – | CC[C@H](C)[C@H](NC(=O)[C@@H](NC(=O)CNC(=O)[C@H](CC(=O)O)NC(=O)CNC(=O)[C@H](CS)NC(=O)[C@@H](NC(=O)[C@@H](N)C(C)C)[C@@H](C)O)C(C)C)C(=O)N[C@H](C(=O)N[C@@H](CCCNC(=N)N)C(=O)O)[C@@H](C)O [Peptide 205, VTCGDGVITR] (H-VTCGDGVITR-OH)

Row | Compound | IC50 [1, 6] | inhibition of thrombospondin binding to heparin, in words [1] | IC50 [2] | IC50 [3] | IC50 [4] | IC50 [5] | IC50 [1, 7] | fold less active than CSVTCG ([2]; thrombospondin binding to sulfatide)
16 | CC(C)[C@H](NC(=O)[C@H](CO)NC(=O)[C@H](CS)NC(=O)[C@H](CO)NC(=O)[C@@H](N)CO)C(=O)N[C@H](C(=O)O)[C@@H](C)O [Peptide 238, SSCSVT] (H-SSCSVT-OH) | 85 µM | weak inhibition of thrombospondin binding | > 100 µM | > 200 µM | > 200 µM | – | – | –
